Results taken from patent US7163952B2, “Azole compound and medicinal use thereof” (Japan Tobacco Inc., priority 2001, dated 2007).

Assays:
[1] = tested on: db/db mice; assay: Blood lipid lowering action in db/db mice, oral administration once a day for 14 days; type: in vivo; conditions: non-fasting; for Plasma triglyceride concentration (mg/dL) Day 7: Day 7 (control group 508); for Plasma triglyceride concentration (mg/dL) Day 14: Day 14 (control group 622)
Protocol: A 0.5% methyl cellulose suspension of the test compound was orally administered to 7-week-old db/db mice once a day for 14 days. The 0.5% methyl cellulose solution alone was administered to the control group.
The blood was drawn from the orbital vein with light ether anesthesia before test compound administration on day 7 day 14 under non-fasting condition. The blood thus drawn was separated by centrifugation and the plasma triglyceride concentration was measured from the obtained plasma according to the enzyme method (triglyceride measure kit).

[2] = tested on: male ob/ob mice; assay: Hypoglycemic action in ob/ob mice, oral administration; type: in vivo; conditions: Mus musculus, dose 3 mg/kg oral, fasting, 3 hr after administration, relative to control group, read-out: Decrease in blood glucose level (%) 3 hr
Protocol: A 0.5% methyl cellulose suspension of the test compound was orally administered to male ob/ob mice (6 to 9 weeks old) grouped based on blood glucose level. A 0.5% methyl cellulose solution alone was administered to a control group.
The blood was drawn from the orbital vein with anesthesia at 3 hours after the administration. The blood was drawn under fasting by removing the feed immediately before test compound administration. The blood thus drawn was separated by centrifugation and the blood glucose level was measured from the obtained plasma according to the hexokinase method (glucose measure kit). For evaluation, decrease in the blood glucose level of the test compound administration group relative to the control group was shown in percentage.

[3] = biological target: T1, recombinant human protein tyrosine phosphatase 1B (Homo sapiens, UniProt P18031); assay: Protein tyrosine phosphatase 1B inhibitory action (malachite green, phosphorylated insulin receptor peptide substrate); type: biochemical; conditions: recombinant human PTP1B, 60 min room temperature, absorbance at 650 nm
T1 construct: purchased UBI
T1 sequence (P18031 1-435): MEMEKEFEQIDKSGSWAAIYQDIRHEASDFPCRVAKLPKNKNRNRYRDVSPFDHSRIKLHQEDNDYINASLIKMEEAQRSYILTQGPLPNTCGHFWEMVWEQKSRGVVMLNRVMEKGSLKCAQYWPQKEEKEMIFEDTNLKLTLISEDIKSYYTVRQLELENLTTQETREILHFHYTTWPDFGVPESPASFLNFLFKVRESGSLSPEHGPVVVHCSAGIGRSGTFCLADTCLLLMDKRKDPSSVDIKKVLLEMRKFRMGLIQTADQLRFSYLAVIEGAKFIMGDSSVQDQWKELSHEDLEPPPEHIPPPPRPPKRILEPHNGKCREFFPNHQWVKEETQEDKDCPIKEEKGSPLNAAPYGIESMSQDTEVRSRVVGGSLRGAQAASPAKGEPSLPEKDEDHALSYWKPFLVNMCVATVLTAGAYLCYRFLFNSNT
Protocol: Preparation of Assay Buffer:
50 mM Tris-HCl buffer (pH 7.5), and 50 mM NaCl and 3 mM dithiothreitol (DTT) were prepared.
Respective 10 mM DMSO solutions of 0.1, 0.3, 1, 3 and 10 μM test compounds were diluted with the above-mentioned assay buffer so that the final dimethyl sulfoxide (DMSO) concentration would be not more than 1%. As a control, an assay buffer was used.
Preparation of Substrate:
A synthetic peptide consisting of 12 amino acids corresponding to 1142nd–1153rd of insulin receptor sequence, wherein three tyrosines therein had been phosphorylated, was diluted with the above-mentioned assay buffer to 80 μM.
A recombinant human protein tyrosine phosphatase 1B (manufactured by UBI) was diluted with the above-mentioned assay buffer (1.2 ng/25 μl).
A sample (10 μl) and a substrate (25 μl) prepared as mentioned above were successively added to a 96 well plate, and an enzyme (25 μl) prepared as mentioned above was added and mixed. After incubation at room temperature for 60 min., malachite green (120 μl, Biomol), which is a phosphorus color fixing agent, was added, and the mixture was further incubated at room temperature for 20 min. to allow color development. The absorbance at 650 nm was measured on a plate reader, and the protein tyrosine phosphatase 1B inhibitory action of the test compound was evaluated.

In the case of CN(Cc1ccc(C2CCCCC2)cc1)c1ccc(-c2csc(N(C)Cc3ccc(C(=O)[O-])cc3)n2)cc1.[Na+] [Example 102, sodium 4-(N-(4-(4-(N-(4-cyclohexylbenzyl)-N-methylamino)phenyl)-2-thiazolyl)-N-methylaminomethyl)benzoate], the “Plasma triglyceride concentration (mg/dL) Day 7” value ([1]; dose 10 mg/kg oral once a day) is reported as 277 mg/dL, the “Plasma triglyceride concentration (mg/dL) Day 14” value ([1]; dose 10 mg/kg oral once a day) is reported as 349 mg/dL and the “Plasma triglyceride concentration (mg/dL) Day 7” value ([1]; dose 30 mg/kg oral once a day) is reported as 250 mg/dL. For the same molecule, the “Plasma triglyceride concentration (mg/dL) Day 14” value ([1]; dose 30 mg/kg oral once a day) was 307 mg/dL and the melting point was 240 °C.
Molecule CCCC(CCC)c1ccc(CN(C)c2ccc(-c3csc(N(C)Cc4ccc(C(=O)O)cc4)n3)cc2)cc1 [Example 230, 4-((N-methyl-N-(4-(4-(N-methyl-N-(4-(1-propylbutyl)benzyl)amino)phenyl)-2-thiazolyl)amino)methyl)benzoic acid] has an inhibition in vivo at 3 mg/kg [2] of 40%, an IC50 [3] of 0.15 µM and a melting point of 114 to 115 °C.
